Reference: patent US6376497B1, “Antifungal azole derivatives having a fluorinated vinyl group and process for preparing same” (Korea Research Institute of Chemical Technology, priority 1999, dated 2002)

Columns and labels:
Assay in all cases: In vitro antifungal activity, microbroth dilution MIC
Format in all cases: cell-based
[1] = test system: Aspergillus furnigatus B. 19119; conditions: 4 to 48 hours; for Minimal inhibitory concentration(MIC), A furnigatus B. 19119: RPMI-1640, 35° C., no growth observed
Outline: (§1)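 Broth microdilution adapted from NCCLS M27, in RPMI-1640 with 0.165 M MOPS, pH 7.0. Yeast or mould inoculum at 2×10^3 CFU/ml was mixed 1:1 with DMSO-derived compound solutions (200 to 0.10 μg/ml before mixing) and incubated at 35 °C for 4 to 48 h. MIC was the concentration showing no growth.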

[2] = test system: Aspergillus niger A. 16404; conditions: 4 to 48 hours; for Minimal inhibitory concentration(MIC), A. niger A. 16404: RPMI-1640, 35° C., no growth observed
Outline: as §1

[3] = test system: Candida albicans A. 10231; conditions: 4 to 48 hours; for Minimal inhibitory concentration(MIC), C. albicans A. 10231: RPMI-1640, 35° C., no growth observed
Outline: as §1

[4] = test system: Candida albicans C1-2; conditions: 4 to 48 hours; for Minimal inhibitory concentration(MIC), C. albicans C1-2: RPMI-1640, 35° C., no growth observed
Outline: as §1

[5] = test system: Candida albicans IFO. 1385; conditions: 4 to 48 hours; for Minimal inhibitory concentration(MIC), C. albicans IFO. 1385: RPMI-1640, 35° C., no growth observed
Outline: as §1

[6] = test system: Candida krusei K. 11655; conditions: 4 to 48 hours; for Minimal inhibitory concentration(MIC), C. krusei K. 11655: RPMI-1640, 35° C., no growth observed
Outline: as §1

[7] = test system: Candida parapsitosis A. 7330; conditions: 4 to 48 hours; for Minimal inhibitory concentration(MIC), C. parapsitosis A. 7330: RPMI-1640, 35° C., no growth observed
Outline: as §1

[8] = test system: Candida pseudotropicalis K. 11658; conditions: 4 to 48 hours; for Minimal inhibitory concentration(MIC), C. pseudotropicalis K. 11658: RPMI-1640, 35° C., no growth observed
Outline: as §1

[9] = test system: Candida tropicalis A. 13803; conditions: 4 to 48 hours; for Minimal inhibitory concentration(MIC), C. tropicalis A. 13803: RPMI-1640, 35° C., no growth observed
Outline: as §1

[10] = test system: Cryptococcus neoformans A. 34144; conditions: 4 to 48 hours; for Minimal inhibitory concentration(MIC), Cry. neoformans A. 34144: RPMI-1640, 35° C., no growth observed
Outline: as §1

[11] = test system: Cryptococcus neoformans B. 42419; conditions: 4 to 48 hours; for Minimal inhibitory concentration(MIC), Cry. neoformans B. 42419: RPMI-1640, 35° C., no growth observed
Outline: as §1

[12] = test system: Cryptococcus neoformans IFM. 40092; conditions: 4 to 48 hours; for Minimal inhibitory concentration(MIC), Cry. neoformans IFM. 40092: RPMI-1640, 35° C., no growth observed
Outline: as §1

[13] = test system: Torulopsis glabrata B. 16205; conditions: 4 to 48 hours; for Minimal inhibitory concentration(MIC), T. glabrata B. 16205: RPMI-1640, 35° C., no growth observed
Outline: as §1

[14] = test system: Trichophyton mentagrophytes A. 9129; conditions: 4 to 48 hours; for Minimal inhibitory concentration(MIC), T. mentagrophytes A. 9129: RPMI-1640, 35° C., no growth observed
Outline: as §1

[15] = test system: Trichophyton mentagrophytes B. 32663; conditions: 4 to 48 hours; for Minimal inhibitory concentration(MIC), T. mentagrophytes B. 32663: RPMI-1640, 35° C., no growth observed
Outline: as §1

Minimal inhibitory concentration(MIC), A furnigatus B. 19119 [1] [µg/mL]	Minimal inhibitory concentration(MIC), A. niger A. 16404 [2] [µg/mL]	Minimal inhibitory concentration(MIC), C. albicans A. 10231 [3] [µg/mL]	Minimal inhibitory concentration(MIC), C. albicans C1-2 [4] [µg/mL]	Minimal inhibitory concentration(MIC), C. albicans IFO. 1385 [5] [µg/mL]	Minimal inhibitory concentration(MIC), C. krusei K. 11655 [6] [µg/mL]	Minimal inhibitory concentration(MIC), C. parapsitosis A. 7330 [7] [µg/mL]	Minimal inhibitory concentration(MIC), C. pseudotropicalis K. 11658 [8] [µg/mL]	Minimal inhibitory concentration(MIC), C. tropicalis A. 13803 [9] [µg/mL]	Minimal inhibitory concentration(MIC), Cry. neoformans A. 34144 [10] [µg/mL]	Minimal inhibitory concentration(MIC), Cry. neoformans B. 42419 [11] [µg/mL]	Minimal inhibitory concentration(MIC), Cry. neoformans IFM. 40092 [12] [µg/mL]	Minimal inhibitory concentration(MIC), T. glabrata B. 16205 [13] [µg/mL]	Minimal inhibitory concentration(MIC), T. mentagrophytes A. 9129 [14] [µg/mL]	Minimal inhibitory concentration(MIC), T. mentagrophytes B. 32663 [15] [µg/mL]	Structure (SMILES)	further results
>100	>100	100	100	3.13	100	100	25.0	>100	1.56	1.56	0.20	50.0	6.25	3.13	COc1ccc(C(=C(F)Oc2ccc(OCC3COC(Cn4cncn4)(c4ccc(Cl)cc4Cl)O3)cc2)C(F)(F)F)cc1 (mixture of isomers) [Ex. 121]	
															FC(OCC1COC(Cn2ccnc2)(c2ccc(F)cc2F)O1)=C(c1ccc(F)cc1)C(F)(F)F (mixture of isomers) [Ex. 66]	Minimal inhibitory concentration (MIC) ([1]; A furnigatus B. 19119, RPMI-1640, 35° C.): 6.25 µg/mL; Minimal inhibitory concentration (MIC) ([2]; A. niger A. 16404, RPMI-1640, 35° C.): >100 µg/mL; Minimal inhibitory concentration (MIC) ([3]; C. albicans A. 10231, RPMI-1640, 35° C.): 12.5 µg/mL; Minimal inhibitory concentration (MIC) ([4]; C. albicans C1-2, RPMI-1640, 35° C.): 12.5 µg/mL; Minimal inhibitory concentration (MIC) ([5]; C. albicans IFO. 1385, RPMI-1640, 35° C.): 0.39 µg/mL; Minimal inhibitory concentration (MIC) ([6]; C. krusei K. 11655, RPMI-1640, 35° C.): 100 µg/mL; Minimal inhibitory concentration (MIC) ([7]; C. parapsitosis A. 7330, RPMI-1640, 35° C.): >100 µg/mL; Minimal inhibitory concentration (MIC) ([8]; C. pseudotropicalis K. 11658, RPMI-1640, 35° C.): 50.0 µg/mL; Minimal inhibitory concentration (MIC) ([9]; C. tropicalis A. 13803, RPMI-1640, 35° C.): 100 µg/mL; Minimal inhibitory concentration (MIC) ([10]; Cry. neoformans A. 34144, RPMI-1640, 35° C.): 0.78 µg/mL; Minimal inhibitory concentration (MIC) ([11]; Cry. neoformans B. 42419, RPMI-1640, 35° C.): 0.39 µg/mL; Minimal inhibitory concentration (MIC) ([12]; Cry. neoformans IFM. 40092, RPMI-1640, 35° C.): ≦0.10 μg/ml; Minimal inhibitory concentration (MIC) ([13]; T. glabrata B. 16205, RPMI-1640, 35° C.): 6.25 µg/mL; Minimal inhibitory concentration (MIC) ([14]; T. mentagrophytes A. 9129, RPMI-1640, 35° C.): 6.25 µg/mL; Minimal inhibitory concentration (MIC) ([15]; T. mentagrophytes B. 32663, RPMI-1640, 35° C.): 3.13 µg/mL
>100	>100	>100	>100	1.56	1.56	3.13	1.56	>100	0.39	0.78	0.20	>100	6.25	1.56	COc1ccc(C(=C(F)N2CCN(c3ccc(OCC4COC(Cn5ccnc5)(c5ccc(Cl)cc5Cl)O4)cc3)CC2)C(F)(F)F)cc1 (mixture of isomers) [Ex. 131]	
>100	>100	25.0	25.0	1.56	>100	>100	>100	100	1.56	3.13	0.39	50.0	6.25	3.13	Cc1ccc(C(=C(F)Oc2ccc(OCC3COC(Cn4cncn4)(c4ccc(Cl)cc4Cl)O3)cc2)C(F)(F)F)cc1 (mixture of isomers) [Ex. 120]	
